Consider five compounds from US20240109843A1, “BENZALDEHYDE COMPOUNDS WITH DIRECT POLYMER DESTABILIZING EFFECTS TO TREAT SICKLE CELL DISEASE” (VIRGINIA COMMONWEALTH UNIVERSITY, priority 2018, published 2024).

pKd: −log10 of the molar value. Where “and” joins values, the source holds several entries; their conditions need not be identical. Equal values may be shown once.

A short description of data set [1]: 14-day repeat-dose oral pharmacokinetics in rats. Format: in vivo. The conditions noted are these: SD, rat, whole blood, repeat oral doses 100 mg/kg for 14 days. As to the method:
(§1) Repeat doses of each compound were administered once daily as oral suspensions by gavage in 0.5% carboxy methylcellulose for 14 days at 100 mg/kg. Whole blood was collected at 7 time-points for up to 24 hours during the final dosing interval on Day 14. Clinical observations, body weights, and food consumption were recorded throughout the 14 day study. Clinical chemistry and hematologic parameters were assessed, and histopathology was performed on organs after 14 days of exposure to study drug.
(§2) Repeat oral doses of each compound were administered by oral gavage for 14 days to male and female SD rats (n=3). […] Steady state exposures for the final dosing interval on Day 14 were similar to total compound exposure from single-dose PK.

For data set [2], the target named is T1, Hb (Homo sapiens, UniProt P69905). Put plainly: Hb modification (drug-adduct formation) in SS blood suspensions by cation-exchange HPLC. The data set is classed as binding. Also noted: Blood suspensions from subjects with homozygous SCD; from tissue; host or cells: blood suspensions (20% hematocrit) from donors with homozygous SCD; lysates of the treated red cells. The conditions noted are these: 2 mM, 4 biological replicates. As for the experimental part: All compounds (Comp 1-13) and comparator molecules (VZHE-039, PP-14, INN-310, and Voxelotor) were evaluated following established procedures. Blood samples from individual donors with homozygous SCD (obtained with informed consent) were diluted using Hemox buffer solution with the addition of glucose (10 mM) and BSA (0.2%) to adjust hematocrit of the blood suspensions to 20%, which standardizes the procedure to normalize the ratio of RBCs to drug, for assay consistency and reproducibility. Briefly, blood suspensions were incubated under room air in the presence of various concentrations of test compounds (0-2 mM) at 37° C. for 1 hour in 96-well round bottom plates. Subsequently, the suspensions were incubated with a hypoxic gas mixture (2.5% Oxygen gas/balance Nitrogen gas) at 37° C. for up to 2 hours prior to fixation with 2% glutaraldehyde solution without exposure to air. The fixated blood aliquots were evaluated by microscopic morphological analysis (image analysis on Image J software) to identify the proportion of sickled and non-sickled RBCs, and sickle inhibition calculated based on the % change from negative control (DMSO).
The residual samples were then washed in phosphate-buffered saline, and hemolyzed in hypotonic lysis buffer, with or without sodium borohydride (50 mM). Aliquots obtained from the lysates with or without sodium borohydride (to reduce Schiff base adducts) were also assessed for level of Hb modification (drug-adduct formation) by cation-exchange HPLC (Hitachi D-7000 Series, Hitachi Instruments, Inc., San Jose, CA) with a weak cation-exchange column (Poly CAT A: 50 mm×4.6 mm, Poly LC, Inc., Columbia, MD). Hemoglobin isotype peaks are eluted with a linear gradient of phase B from 0% to 80% at A410 nm (Mobile Phase A: 40 mM Bis-Tris, 2 mM KCN, pH 6.9; Phase B: 40 mM Bis-Tris, 2 mM KCN, 0.2 M sodium chloride, pH 6.55). Clarified lysate from normal human adult […] (Hb A), as well as commercial standards containing approximately equal amounts of Hb F, A, S and C (Helena Laboratories, Beaumont, TX), were utilized as reference isotypes. Reduced samples were used to assess “fixed adduct” formation (dependent on RBC membrane permeability), whereas non-reduced samples assessed drug-adduct formation independent of drug permeability.
Target sequence in this assay (P69905 2-142): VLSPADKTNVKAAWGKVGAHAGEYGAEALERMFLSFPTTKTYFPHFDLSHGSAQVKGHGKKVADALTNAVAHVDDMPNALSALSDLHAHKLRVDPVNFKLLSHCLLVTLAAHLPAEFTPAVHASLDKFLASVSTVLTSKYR
Target sequence in this assay (P68871 with tags, fused parts or gaps E7V partner): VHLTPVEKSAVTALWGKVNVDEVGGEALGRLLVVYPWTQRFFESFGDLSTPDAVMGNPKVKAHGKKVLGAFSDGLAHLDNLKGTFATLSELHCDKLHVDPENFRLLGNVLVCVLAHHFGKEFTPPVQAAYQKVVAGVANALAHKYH

Data set [3] can be described thus: 14-day repeat-dose safety (clinical observations, histopathology) in rats. Format: in vivo, SD rats. The conditions noted are these: for safety in non-clinical toxicology: above anticipated therapeutic drug levels; for clinical or histopathologic changes after 14 days of exposure: oral 100 mg/kg once daily for 14 days, rats. As for the experimental part: as §1, §2

Data set [4] can be described thus: Single-dose oral pharmacokinetics in rats. Particulars: Sprague Dawley, rat; single oral dose 100 mg/kg, male rats, whole blood. Format: in vivo, Sprague Dawley rats. As for the experimental part:
Single doses of each compound were administered as oral suspensions by gavage in 0.5% carboxy methylcellulose at 100 mg/kg. Whole blood levels were collected for at least 72 hours after dose administration. Bioanalyses were performed with liquid chromatography-tandem mass spectrometry […].
Single-dose pharmacokinetics (PK) in male Sprague Dawley (SD) rats (n=4) were assessed for each compound, and the maximum or peak whole blood concentration and area under the curve are shown in Table 5.

Data set [5] has as its target T1, Hb. The data set is described as follows: Drug partitioning studies, fixed and unfixed Hb adducts in non-sickling AA blood. The data set is classed as cell-based. Also noted: Hemoglobin modification, studies using non-sickling AA blood; from tissue; host or cells: non-sickling (AA) human blood, red blood cells. The conditions noted are these: 2 mM; for Fixed Adducts (%) / Unfixed Adduct (%): 6 biological replicates; for Partitioning Ratio (%): fixed relative to unfixed adducts. As for the experimental part: RBC partitioning studies were conducted both for SS RBCs following sickling studies above, or as separate independent studies with non-sickle blood. Briefly, aliquots of blood samples, which had been incubated with test molecules, were lysed either in deionized water (un-fixed), or in water containing 50 mM sodium borohydride (fixed). Samples were subjected to cation exchange HPLC analyses, as described above. Modified […] (Hb adducts) was determined as a proportion of total Hb in each sample, and partitioning ratio was determined as the relative fraction of Hb modification of fixed samples compared to corresponding non-fixed samples. The partitioning ratio is the relative fraction of Hb that was modified intracellularly by molecules that permeated the RBC membrane, as compared to unfixed adducts which reflect Hb binding without RBC membrane permeation.
Target sequence in this assay (P69905 2-142 limits assumed): as the sequence (P69905 2-142) above
Target sequence in this assay (P68871 2-147 partner limits assumed): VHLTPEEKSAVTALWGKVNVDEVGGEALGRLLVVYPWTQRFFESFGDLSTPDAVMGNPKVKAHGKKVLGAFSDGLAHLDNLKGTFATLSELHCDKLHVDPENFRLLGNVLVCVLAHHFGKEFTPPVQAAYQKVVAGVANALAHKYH

Data set [6] concerns RBCs from donors with homozygous SCD. The data set is described as follows: Oxygen-independent sickle inhibition in SS blood suspensions under anoxia (100% nitrogen). The data set is classed as cell-based, human. The conditions noted are these: anoxia. As to the method:
To establish oxygen-independent sickle inhibition, the incubation chamber was subsequently opened and exposed to room air for 15 minutes to ensure complete re-oxygenation and reversal of the sickled cells to normal round cells. Reversal was confirmed by microscopy. The incubation chamber was then closed, and the assay was repeated with incubation in 100% nitrogen gas for 1 hour (for screening), or up to 2.5 h (for time-course studies), with collection and fixation of blood aliquots at defined intervals. Aliquot samples were again subjected to microscopic morphological analysis of bright field images to identify the proportion of sickled and non-sickled cells, and sickle inhibition calculated.

The target of data set [7] is T1, Hb. Put plainly: Dose-dependent P50 shift in non-sickling human blood. The conditions noted are these: compared to Voxelotor at equivalent drug-Hb occupancy levels. Also noted: Hemoglobin modification, studies using non-sickling AA blood; from tissue; host or cells: non-sickling (AA) human blood, red blood cells. Format: cell-based. As to the method: Non-sickling human blood was incubated with test compounds at 0.25-2 mM concentrations at 37° C. for 1 hour in 96-well round bottom plates. At conclusion, RBCs were washed once with PBS, followed by lysis with deionized water. Approximately 100 μl aliquots of individual lysates were added to 3 mL of 0.1M potassium phosphate buffer, pH 7.0 in a cuvette and subjected to hemoximetry analysis using a Hemox™ Analyzer (TCS Scientific Corp.) as previously described. Change in p50 values (Δp50) was calculated by subtracting the p50 values of treated samples from the value of the control sample and expressing the difference as a percentage of control p50 values.
Target sequence in this assay (P69905 2-142 limits assumed): as the sequence (P69905 2-142) above
Target sequence in this assay (P68871 2-147 partner limits assumed): as the sequence (P68871 2-147 partner limits assumed) above

Data set [8] addresses T1, Hb. The data set is described as follows: Affinity (KD) for Hb. Format: binding.
Target sequence in this assay (P69905 2-142 limits assumed): as the sequence (P69905 2-142) above
Target sequence in this assay (P68871 2-147 partner limits assumed): as the sequence (P68871 2-147 partner limits assumed) above
For data set [9] the following is noted: patients with SCD, most patients; cited from earlier work.
The mark [10] stands for this setting: female rats, read-out: AUC0-∞ (female).
Setting [11] is: female rats, read-out: Cmax (female).
[12] abbreviates: male rats, read-out: AUC0-∞ (male).
Where [13] appears, read: male rats, read-out: Cmax (male).

Take `O=Cc1c(O)cccc1OCc1ccccn1` [Comp 2, 2-hydroxy-6-(pyridin-2-ylmethoxy)benzaldehyde]: the AUC(0-inf) in [1] (setting [10]) is 4.9e+06 ng·h/mL and 21500 µM·h. The Cmax (as a rule, the peak of the concentration-time curve) in data set [1] (setting [11]) is 254000 ng/mL and 1.11 mM. In addition, the AUC(0-inf) in data set [1] (setting [12]) was 4.7e+06 ng·h/mL and 20400 µM·h. The peak concentration (Cmax) in data set [1] (setting [13]) is 254000 ng/mL and 1.11 mM. Moreover, in data set [2], the “Hb Modification (%)” value is 95.5 ± 5.7%. Also, in data set [3], the “safety in non-clinical toxicology” value was “without hepatotoxicity” and the “clinical or histopathologic changes after 14 days of exposure” value (from here on “clinical or histopathologic changes”) was “No clinical or histopathologic changes”. Moreover, in data set [4], the AUC(0-inf) is 4.5e+06 ng·h/mL and 19800 µM·h; the Cmax was 220000 ng/mL and 958 µM; the half-life (commonly the time in which the quantity being followed falls by half) is 9.7 h. For the same compound, in data set [5], the “Fixed Adducts (%)” value came out at 95.2 ± 2.3%, the “Unfixed Adduct (%)” value is on record as 96.3 ± 2.6% and the “Partitioning Ratio (%)” value amounted to 98.9 ± 2.9%. Besides, in [6], the “polymer destabilizing effect / sickle inhibition in anoxia (in words)” value was “most potent and sustained polymer destabilizing effects observed to date”. For the same compound, in [7], the “change in p50 of Hb in human blood (in words)” value (“change in p50 of Hb” for short) is given as “relatively weak changes in p50”.

For `O=Cc1c(O)cccc1OCc1cccnc1` [Comp 1, 2-hydroxy-6-(pyridin-3-ylmethoxy)benzaldehyde], the pKd (commonly the negative decadic logarithm of the Kd, by convention in mol/L) in data set [8] is 4.22. Further, the AUC(0-inf) in data set [1] (setting [10]) is 1.9e+06 ng·h/mL and 8080 µM·h. The Cmax in data set [1] (setting [11]) was 122000 ng/mL and 534 µM. The AUC(0-inf) in data set [1] (setting [12]) was 2.4e+06 ng·h/mL and 10500 µM·h. For the same compound, the Cmax in data set [1] (setting [13]) was 161000 ng/mL and 703 µM. The “Hb Modification (%)” value in data set [2] was 95.8 ± 6.2%. Also, in data set [3], the “safety in non-clinical toxicology” value is “without hepatotoxicity” and the “clinical or histopathologic changes” value is “No clinical or histopathologic changes”. Besides, in data set [4], the AUC(0-inf) was 4e+06 ng·h/mL and 17400 µM·h; the Cmax was 211000 ng/mL and 919 µM; the half-life was 5 h. Moreover, in data set [5], the “Fixed Adducts (%)” value turned out to be 96.0 ± 1.9%, the “Unfixed Adduct (%)” value is 97.4 ± 2.8% and the “Partitioning Ratio (%)” value was found to be 98.6 ± 2.8%. For the same compound, the “polymer destabilizing effect / sickle inhibition in anoxia (in words)” value in [6] was “most potent and sustained polymer destabilizing effects observed to date”. For the same compound, in [7], the “change in p50 of Hb” value is on record as “relatively weak changes in p50”.

Take `CC(C)n1nccc1-c1ncccc1COc1cccc(O)c1C=O` [Voxelotor, reference compound]: the AUC(0-inf) in data set [1] (setting [10]) was 2.6e+06 ng·h/mL and 7620 µM·h. Further, in data set [1] (setting [11]), the Cmax is 185000 ng/mL and 548 µM. Further, the AUC(0-inf) in [1] (setting [12]) was 2.3e+06 ng·h/mL and 6760 µM·h. Moreover, the maximum concentration (Cmax) in data set [1] (setting [13]) is 142000 ng/mL and 422 µM. In [2], the “Hb Modification (%)” value came to 92.3 ± 6.8%. In addition, the “increase in Hb concentrations” value in data set [9] is on record as “at least 1 g/dl”. Besides, in data set [5], the “Fixed Adducts (%)” value stood at 77.0 ± 3.8%, the “Unfixed Adduct (%)” value is listed as 80.3 ± 6.3% and the “Partitioning Ratio (%)” value worked out at 96.1 ± 3.7%. In data set [6], the “polymer destabilizing effect / sickle inhibition in anoxia (in words)” value was “did not demonstrate any sickle inhibition in anoxic conditions”.

For `O=Cc1c(O)cccc1OCc1ncccc1F` [Comp 5, 2-((3-fluoropyridin-2-yl)methoxy)-6-hydroxybenzaldehyde], the AUC(0-inf) in data set [1] (setting [10]) was 5.1e+06 ng·h/mL and 20600 µM·h. Further, in data set [1] (setting [11]), the Cmax was 246000 ng/mL and 993 µM. In [1] (setting [12]), the AUC(0-inf) was 4.2e+06 ng·h/mL and 17100 µM·h. In addition, the highest concentration (Cmax) in data set [1] (setting [13]) is 211000 ng/mL and 854 µM. Further, the “Hb Modification (%)” value in data set [2] is 98.2 ± 2.5%. For the same compound, in data set [3], the “safety in non-clinical toxicology” value is listed as “without hepatotoxicity” and the “clinical or histopathologic changes” value is listed as “No clinical or histopathologic changes”. Further, in data set [4], the AUC(0-inf) is 3e+06 ng·h/mL and 12000 µM·h; the Cmax was 86000 ng/mL and 348 µM; the half-life is 8.8 h. For the same compound, in [5], the “Fixed Adducts (%)” value came to 93.1 ± 3.3%, the “Unfixed Adduct (%)” value was 95.8 ± 3.3% and the “Partitioning Ratio (%)” value worked out at 97.2 ± 3.2%. Also, the “change in p50 of Hb” value in [7] was “relatively weak changes in p50”.

As for `O=Cc1c(O)cccc1OCc1cccc(CO)n1` [VZHE-039, reference compound], in [8], the negative-log Kd (pKd) is 4.00. For the same compound, the AUC(0-inf) in data set [1] (setting [10]) is 3.2e+06 ng·h/mL and 12200 µM·h. In addition, in [1] (setting [11]), the Cmax is 232000 ng/mL and 894 µM. The AUC(0-inf) in data set [1] (setting [12]) was 3e+06 ng·h/mL and 11600 µM·h. Also, the Cmax in [1] (setting [13]) is 195000 ng/mL and 753 µM. Moreover, the “Hb Modification (%)” value in data set [2] stood at 90.7 ± 9.9%. In [3], the “clinical or histopathologic changes” value was “clinical and histopathologic changes in the liver, including hepatocyte necrosis”. Besides, in data set [4], the AUC(0-inf) was 2.3e+06 ng·h/mL and 8780 µM·h; the Cmax was 102000 ng/mL and 394 µM; the half-life was 8.4 h. Besides, in data set [5], the “Fixed Adducts (%)” value is recorded as 90.9 ± 3.4%, the “Unfixed Adduct (%)” value amounted to 92.4 ± 5.6% and the “Partitioning Ratio (%)” value stood at 98.5 ± 4.3%.
